Assay results from the supplement of paper PMC6461962.

Assays:
[1] = system: Pseudomonas fluorescens FW300-N2E2
Method in brief: (§1)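 Cells were washed and added to 384-well plates at a final OD600 of 0.02 in 80 µL, with serial dilutions of inorganic ion salts or equimolar nitrilotriacetic acid complexes. Aerobic plates were shaken at 700 rpm at 30 °C, while anaerobic plates were not shaken, and OD600 was read at 24 h, or at 48 h for R2A strain comparisons. Readings were scaled between water controls and growth-blocking antibiotic controls, and wells with precipitate were excluded. The IC50 was obtained by fitting curves from at least two biological replicates with the drc R package.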

[2] = system: Rhodanobacter sp. FW104-10B01
Method in brief: as §1

[3] = medium / electron acceptor: N2E2 Glucose/aerobic
[4] = medium / electron acceptor: N2E2 Glucose/aerobic 0.25xMinerals
[5] = medium / electron acceptor: N2E2 Glucose/aerobic (2)
[6] = medium / electron acceptor: N2E2 KB/aerobic
[7] = medium / electron acceptor: N2E2 LB/aerobic
[8] = medium / electron acceptor: N2E2 LB/aerobic (2)
[9] = medium / electron acceptor: N2E2 LB/nitrate
[10] = medium / electron acceptor: N2E2 Lactate/aerobic
[11] = medium / electron acceptor: N2E2 R2A/aerobic
[12] = medium / electron acceptor: 10B01 R2A/aerobic
[13] = medium / electron acceptor: 10B01 R2A/nitrate

Row | Compound | IC50 growth inhibition [1, 3] [µM] | IC50 growth inhibition [1, 4] [µM] | IC50 growth inhibition [1, 5] [µM] | IC50 growth inhibition [1, 6] [µM] | IC50 growth inhibition [1, 7] [µM] | IC50 growth inhibition [1, 8] [µM] | IC50 growth inhibition [1, 9] [µM] | IC50 growth inhibition [1, 10] [µM] | IC50 growth inhibition [1, 11] [µM] | IC50 growth inhibition [2, 12] [µM] | IC50 growth inhibition [2, 13] [µM]
1 | OP(O)O [Sodium phosphite dibasic pentahydrate] | < 244 | < 244 | < 244 | 2030 | 354000 | 354000 | 118000 | < 244 | 309000 | > 500000 | 197000
2 | O.O.O.O.O.O.[Cl][Ni][Cl] [Nickel (II) chloride hexahydrate] | 11.2 | 5.56 | 14.3 | 3920 | 3590 | > 5000 | > 5000 | 27.6 | 221 | 1030 | 1820
3 | [Cl][Ga]([Cl])[Cl] [Gallium(III)chloride] | < 24.4 | < 24.4 | < 24.4 | < 24.4 | < 24.4 | < 24.4 | < 24.4 | < 24.4 | < 24.4 | 1000 | 1670
4 | [Cl-].[Rb+] [rubidium chloride] | 17400 | 251000 | 15700 | 349000 | 387000 | 384000 | 284000 | 168000 | > 500000 | 354000 | > 500000
5 | [Cl][Hg][Cl] [mercury (II) chloride] | < 2.44 | < 2.44 | < 2.44 | < 2.44 | < 2.44 | < 2.44 | < 2.44 | < 2.44 | < 2.44 | < 2.44 | < 2.44
